{
  "source": "paper PMC12081905",
  "about": "“Ortho-functionalization of a ^211At-labeled aryl compound provides stabilization of the C-At bond against oxidative dehalogenation” (Scientific Reports, 2025)",
  "key": {"[1]": {"parameters": "method as in PMID 28566709", "settings": "DFT, resulting oxidized compounds; cited from earlier work"}, "[2]": {"test": "Stability assay in oxidizing/acidic medium (chemical oxidation assay, KMnO4)", "type": "physicochemical", "settings": "radio-HPLC", "procedure": "Stability of ^211At-labeled compounds in oxidizing media. […] Adapted from Teze et al.[10], it consists in an incubation of the ^211At-labeled product in 50 mM acetate buffer (pH = 4.7) containing a 1 mM potassium permanganate solution (Fig. 5).\n(§1) ^211At was produced at the Arronax cyclotron facility using the ^209Bi(α,2n) ^211At reaction and recovered from the irradiated target in chloroform using a dry distillation protocol adapted from the procedure previously reported by Lindegren et al.[26] Before use, the ^211At solution was reduced to dryness under a gentle stream of nitrogen. […] To quantify free astatine that remains trapped in the HPLC system during the elution, 50 µL of an aqueous sodium sulfite solution (10 mg mL^−1) were injected after each analysis to release free astatine from the HPLC system with the flow rate set at 1.20 mL/min with the following gradient: t = 0: 90% A, 10% B; t = 2–6 min: 100% B with A = H2O with 0.05% TFA and B = CH3CN with 0.05% TFA. The non-radioactive iodinated compounds were analyzed using this HPLC system and their retention times were used as references for identification of their astatinated analogues. […]\nEach peak is then integrated, providing each peak area (noted A(A), A(B) etc…) to quantify the species present. […]"}, "[3]": {"system": "rat liver microsomes (CYP450)", "test": "Stability assay in rat liver microsomal medium with NADPH regeneration system", "type": "in vitro ADME", "settings": "37 °C, radio-HPLC", "excerpt": "(§2) Since oxidation by CYP450 enzymes is a plausible cause of oxidative deastatination within targeted cells or in the liver, we also assessed the stability of our compounds against liver microsomes. Liver microsomes contain CYP450, a family of oxidase enzymes that were used in our assay, adapted from Schmitt et al.[14] and using a nicotinamide adenine dinucleotide phosphate (NADPH) redox regeneration system to regenerate the redox properties of CYP450. For comparison, we performed the stability assay in rat and human liver microsomes (Fig. 7).\nas §1, with “al.[26]” for “al.[26] Before use, the ^211At solution was reduced to dryness under a gentle stream of nitrogen.”"}, "[4]": {"system": "human liver microsomes (CYP450)", "test": "Stability assay in human liver microsomal medium with NADPH regeneration system", "type": "in vitro ADME", "settings": "37 °C, radio-HPLC", "excerpt": "as §2\nas §1, with “al.[26]” for “al.[26] Before use, the ^211At solution was reduced to dryness under a gentle stream of nitrogen.”"}},
  "data": [
    {"compound": "CCOC(=O)c1cccc([211At])c1", "note": "[compound 1, ethyl 3-[^211At]astatobenzoate]", "values": [
      {"measurement": "bond dissociation energy of the carbon-halogen bond", "setting": "[1]", "value": 28.2, "unit": "kcal mol^−1"}
    ]},
    {"compound": "OCc1ccccc1[211At]", "note": "[compound 2, (2-[^211At]astatophenyl)methanol]", "values": [
      {"measurement": "free astatine (release of astatine) after 20 h incubation in oxidizing medium", "setting": "[2]; 50 mM acetate buffer pH 4.7, 1 mM KMnO4, room temperature, 20 h, n = 3", "value": 12, "unit": "%"}
    ]},
    {"compound": "CCNC(=O)c1cccc([211At])c1", "note": "[[^211At]AEB, 3-[^211At]astato-N-ethylbenzamide]", "values": [
      {"measurement": "starting compound / metabolites after 20 h incubation in rat microsomes", "setting": "[3]", "value": "practically no presence of the starting compound"},
      {"measurement": "starting compound / metabolites after 20 h incubation in human microsomes", "setting": "[4]", "value": "practically no presence of the starting compound"},
      {"measurement": "fate of the starting 211At-compound in oxidizing medium", "setting": "[2]; 50 mM acetate buffer pH 4.7, 1 mM KMnO4, up to 20 h", "value": "almost complete degradation"}
    ]}
  ]
}
